Measured values as given in paper PMC11078990, “Identification and characterization of small molecule inhibitors of the LINE-1 retrotransposon endonuclease” (Nature Communications, 2024).
Values joined by “and” are separate entries in the source; they are usually repeats but may differ in a detail not shown here. Equal entries are not always repeated. Where two headings read alike, the source gives them in different places.

How the values were obtained:
[1] = tested on: senescent LF1 human diploid fibroblasts (IL6, IL1β, CCL2, IFNα, MMP3); assay: RT-qPCR of inflammatory markers in replicatively senescent fibroblasts; type: cell-based
[2] = tested on: senescent LF1 human diploid fibroblasts (IFN-I and Aging gene sets); assay: RNA-seq / Gene Set Enrichment Analysis of senescent cultures; type: cell-based; settings: senescent cultures treated 1 month beginning at 3 months senescence
[3] = tested on: L1 retrotransposition; assay: HeLa dual-luciferase L1 retrotransposition assay; type: cell-based, human
[4] = tested on: HeLa Tet-On cells; settings: human
[5] = tested on: L1-induced DNA damage in HeLa Tet-On cells (full-length L1); assay: γ-H2AX immunofluorescence assay, full-length L1 constructs; type: cell-based, human
[6] = target: L1 EN (LINE-1 retrotransposon endonuclease domain) (Homo sapiens, UniProt O00370, N5T); assay: Fluorescent oligonucleotide EN nicking activity assay; type: biochemical
[7] = target: T1, APE1 (Homo sapiens, UniProt P27695); assay: APE1 fluorescent oligonucleotide activity assay (abasic site substrate); type: biochemical; settings: for activity at 25 µM: read-out: APE1 activity (%)
T1 construct: purchased New England Biolabs (NEB) M0282S

[8] = tested on: DNA fragmentation (comet tail length) in HeLa Tet-On cells expressing EN domain; assay: Neutral comet assay, EN domain-only constructs; type: cell-based, human
[9] = tested on: substrate oligonucleotide used in the EN activity assay; type: binding; set-up: key to Binding Detected? (Y/N): Binding Detected? (Y/N); Binding Detected? (Y/N)
[10] = read-out: EN activity, percent of no inhibitor control

L1 EN (LINE-1 retrotransposon endonuclease domain), sequence (O00370 1-239 N5T): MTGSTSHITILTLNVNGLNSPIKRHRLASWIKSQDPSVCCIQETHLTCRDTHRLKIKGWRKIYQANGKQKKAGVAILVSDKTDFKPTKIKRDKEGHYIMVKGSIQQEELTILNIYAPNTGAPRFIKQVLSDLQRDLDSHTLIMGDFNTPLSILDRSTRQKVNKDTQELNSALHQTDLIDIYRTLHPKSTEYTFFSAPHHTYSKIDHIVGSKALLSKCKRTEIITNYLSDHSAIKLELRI

Nc1ccn([C@@H]2CS[C@H](CO)O2)c(=O)n1 [3TC, Lamivudine, reference compound]
MMP3 RT-qPCR, average (EP = 1) ([1]; 10 μM, senescent cells, SEN control 5.499, 3 replicates): 1.892
IL1β RT-qPCR, average (EP = 1) ([1]; 10 μM, senescent cells, SEN control 8.256, 3 replicates): 10.61
CCL2 RT-qPCR, average (EP = 1) ([1]; 10 μM, senescent cells, SEN control 8.589, 3 replicates): 4.199
IFNα RT-qPCR, average (EP = 1) ([1]; 10 μM, senescent cells, SEN control 18.65, 3 replicates): 15.66
IL6 RT-qPCR, average (EP = 1) ([1]; 10 μM, senescent cells, SEN control 22.45, 3 replicates): 13.65
Expression of IFN-I gene set and aging gene set (RNA-seq, GSEA) [2]: decreased expression
Luciferase (retrotransposition), average ([3]; Figure 4a Graph 1, 10 μM, 0 μM average 9.554): 1.753
Luciferase (retrotransposition), replicates ([3]; Figure 4a Graph 1, 10 μM, Replicates 1-4, 0 μM average 9.554): 1.525 and 1.282 and 1.336 and 2.868
Luciferase (retrotransposition), average ([3]; Figure 4a Graph 2, 10 μM, 0 μM average 9.679): 1.648
Luciferase (retrotransposition), replicates ([3]; Figure 4a Graph 2, 10 μM, Replicates 1-4, 0 μM average 9.679): 2.547 and 1.556 and 1.337 and 1.153
Luciferase (retrotransposition), average ([3]; Figure 4a Graph 3, 10μM, 0μM average 17.91): 3.723
Luciferase (retrotransposition), replicates ([3]; Figure 4a Graph 3, 10μM, Replicates 1-4, 0μM average 17.91): 3.272 and 3.5538 and 3.891 and 4.176
Luciferase (retrotransposition), average ([3]; Figure 4a Graph 4, 10μM, 0μM average 3.426): 0.6208
Luciferase (retrotransposition), replicates ([3]; Figure 4a Graph 4, 10μM, Replicates 1-4, 0μM average 3.426): 0.3413 and 0.6639 and 1.079 and 0.3984
Luciferase (retrotransposition), average ([3]; Figure 4a Graph 5, 10μM, 0μM average 4.537): 0.4847
Luciferase (retrotransposition), replicates ([3]; Figure 4a Graph 5, 10μM, Replicates 1-4, 0μM average 4.537): 0.5984 and 0.4472 and 0.3986 and 0.4945

C/C(C[C@H](c1ccccc1)c1c(O)c2ccccc2oc1=O)=N\Nc1ccc([N+](=O)[O-])cc1[N+](=O)[O-] [AD3]
PrestoBlue (viability), average [4]: 15.41
Inhibition of DNA damage, full-length L1 experiments [5]: best inhibition
EN activity, percent of no inhibitor control ([6]; 1 µM): 108.117% and 78.9256% and 93.3444%
EN activity, percent of no inhibitor control ([6]; 5 µM): 93.5701% and 96.3453%
EN activity, percent of no inhibitor control ([6]; 10 µM): 99.3729%
EN activity, percent of no inhibitor control ([6]; 25 µM): 99.0637% and 102.756%
EN activity, percent of no inhibitor control ([6]; 50 µM): 87.9685% and 80.8738% and 62.1552%
EN activity, percent of no inhibitor control ([6]; 100 µM): 53.1232% and 37.4643% and 59.5468%
EN activity, percent of no inhibitor control ([6]; 250 µM): 26.1232% and 25.9631%
EN activity, percent of no inhibitor control ([6]; 500 µM): 1.104% and 2.0558% and 4.103%
EN activity, percent of no inhibitor control ([6]; 1000 µM): 0.8695% and 0.8159%
remaining activity at 5 µM [6, 10]: 89.6%
remaining activity at 10 µM [6, 10]: 99.4%
remaining activity at 25 µM [6, 10]: 95.7%
remaining activity at 250 µM [6, 10]: 25.7%
remaining activity at 1000 µM [6, 10]: 1.63%
APE1 percent activity, Replicate 1 [7]: 92.838%
APE1 percent activity, Replicate 3 [7]: 104.006%
APE1 percent activity, average [7]: 103.516%
Percent APE1 activity, average [7]: 95.58%
Percent APE1 activity, replicates [7]: 101.896% and 94.978% and 89.8705%
activity at 25 µM [7]: 104 ± 10.4%
IL1β RT-qPCR, average (EP = 1) [1]: 4.703
IL6 RT-qPCR, average (EP = 1) [1]: 6.462
Inhibition of inflammation in senescent cells [1]: showed efficacy
MMP3 RT-qPCR, average (EP = 1) [1]: 2.136
Nuclei comet tail length, average (WT = 1) [8]: 0.568
Binding Detected? (Y/N) [9]: N
Luciferase (retrotransposition), average [3]: 1.378
Luciferase (retrotransposition), replicates [3]: 0.9116 and 1.591 and 1.485 and 1.524

C/C(=N\Nc1ccc([N+](=O)[O-])cc1[N+](=O)[O-])c1ccc(-n2nncc2C(C)(C)C)cc1 [AD7]
PrestoBlue (viability), average [4]: 16.01
EN activity, percent of no inhibitor control ([6]; 5 µM): 101.994% and 98.1742% and 77.1828%
EN activity, percent of no inhibitor control ([6]; 25 µM): 96.2152% and 94.2464%
EN activity, percent of no inhibitor control ([6]; 50 µM): 105.792% and 87.7855%
EN activity, percent of no inhibitor control ([6]; 100 µM): 94.7448% and 86.2812%
EN activity, percent of no inhibitor control ([6]; 250 µM): 48.1744% and 80.4178% and 71.8348%
EN activity, percent of no inhibitor control ([6]; 500 µM): 47.3691%
EN activity, percent of no inhibitor control ([6]; 750 µM): 44.5063% and 42.7569%
EN activity, percent of no inhibitor control ([6]; 1000 µM): 33.3657% and 34.4723%
EN activity, percent of no inhibitor control ([6]; 1500 µM): 8.772% and 6.335%
remaining activity at 25 µM [6, 10]: 86.8%
remaining activity at 50 µM [6, 10]: 88.2%
remaining activity at 100 µM [6, 10]: 97.9%
remaining activity at 500 µM [6, 10]: 61.3%
remaining activity at 750 µM [6, 10]: 34.4%
remaining activity at 1000 µM [6, 10]: 39.3%
remaining activity at 1500 µM [6, 10]: 7.91%
APE1 percent activity, Replicate 1 [7]: 123.061%
APE1 percent activity, Replicate 2 [7]: 113.794%
APE1 percent activity, Replicate 3 [7]: 119.588%
APE1 percent activity, average [7]: 118.815%
Percent APE1 activity, average [7]: 103.1%
Percent APE1 activity, replicates [7]: 105.066% and 99.3868% and 104.87%
activity at 25 µM [7]: 119 ± 4.7%
Nuclei comet tail length, average (WT = 1) [8]: 0.8142
Binding Detected? (Y/N) [9]: N
Effect on L1 retrotransposition [3]: some activity in the retrotransposition assay
Luciferase (retrotransposition), average [3]: 2.314
Luciferase (retrotransposition), replicates [3]: 2.087 and 1.842 and 2.6465 and 2.682
